For one test, the system named is C. albicans. Description: Candidacidal activity, minimum fungicidal concentration. The note with it: minimum fungicidal concentration = no viable colonies; 10^6 cells/ml in 10 mM phosphate buffer pH 7.4, 2 h at 30°C, plated 24 h; average of three independent experiments in duplicate. The format is cell-based. Here is the method: Minimum fungicidal concentrations (MFC) of the peptides were determined by growing C. albicans aerobically in yeast extract-peptone-dextrose (YEPD) medium at 30°C. After 20 h, 0.5 ml from this suspension was subcultured for 2 h in 20 ml of YEPD broth to obtain a mid-log-phase culture. Cells were harvested by centrifugation, washed with 10 mM phosphate buffer (PB), pH 7.4, and resuspended in the same buffer, and the concentration was adjusted to 10^6 cells/ml. Aliquots of diluted cells were incubated with peptides in 100 µl volume at 30°C for 2 h. Cell suspensions were diluted and spread on YEPD agar plates and the plates were incubated for 24 h at 30°C. Colonies were counted, and the concentrations of the peptides at which no viable colonies were formed were taken as the Minimum fungicidal concentration (MFC). Cell survival was expressed as a percentage of the control. Percentage killing was calculated as [(colonies from control cells- colonies from treated cells)/colonies from control cells x 100].
The average of results from three independent experiments done with duplicate samples was taken for the calculation of MFC. In control experiments, cells were incubated with only buffer.

The next test concerns E. coli (MG 1655). Description: Antibacterial activity, lethal concentration (colony count). The note with it: lethal concentration = no viable colonies; 10^6 cfu/ml in 10 mM sodium phosphate buffer pH 7.4, 2 h at 37°C, plated 18 h; average of three independent experiments in duplicate, variation <5%. The format is cell-based, Escherichia coli. As to the method: (§1) Bacterial strains used were E. coli (MG 1655), S. aureus (ATCC 8530), and P. aeruginosa (NCTC 6751). The antibacterial activity of the peptides was examined in sterile 96 well plates at a ﬁnal volume of 100 µl as follows: Bacteria were grown in nutrient broth (Bacto Difco nutrient broth) to mid-log phase and diluted to 10^6 colony forming units (cfu)/ml in 10 mM sodium phosphate buffer (pH 7.4). Bacteria were incubated with different concentration of peptides for 2 h at 37°C and suitably diluted aliquots were spread on nutrient agar plates. After the plates were incubated at 37°C for 18 h, colonies formed were counted. Lethal concentration (LC) is the concentration of the peptides at which no viable colonies were formed. Cell survival is expressed as a percentage of the control. Percentage killing was calculated as: [(colonies from control cells- colonies from treated cells)/colonies from control cells x 100]. The LC determined was average of three independent experiments done in duplicate. In control experiments, cells were incubated with only buffer.

In test [1] the test system is P. aeruginosa (NCTC 6751). The description is as above. The note with it: lethal concentration = no viable colonies; 10^6 cfu/ml in 10 mM sodium phosphate buffer pH 7.4, 2 h at 37°C, plated 18 h; average of three independent experiments in duplicate, variation <5%. The format is cell-based. As to the method:
as §1

The subject of the next test is S. aureus (ATCC 8530). The description is as above. It is filed as cell-based. The following applies: lethal concentration = no viable colonies; 10^6 cfu/ml in 10 mM sodium phosphate buffer pH 7.4, 2 h at 37°C, plated 18 h; average of three independent experiments in duplicate, variation <5%. As to the method:
as §1

The test system of another test is Gram-negative bacteria. Description: Effect of divalent cations on antibacterial activity at LC. It is filed as cell-based. The following applies: peptide at its LC; for Antibacterial activity in the presence of 1 mM Ca2+, Gram-negative bacteria: 1 mM CaCl2 in buffer. As to the method: (§2) To determine the effect of salt on antibacterial activity, different concentrations of NaCl was included in the incubation buffer at their LC. Different concentrations of divalent cations Ca^2+ and Mg^2+ (as their chloride salts), were included in the buffer to determine their effect on activity at lethal concentration (LC) of the peptides. In control experiments, cells were incubated with only buffer. Data are presented as mean ± standard deviation computed for three independent replicates.
(§3) Figure 2 Effect of divalent cations on antibacterial activity. Mid-log phase bacteria (10^6 CFU/mL) were incubated with peptides at their LC in the absence or presence of the indicated concentrations of CaCl2 and MgCl2. The data are mean values of three independent experiments and the error bars represent standard deviation of the measurements. Standard deviation values ranged between 0.2-2.7.

Another test relates to P. aeruginosa. The description is as above. The format is cell-based. The following applies: peptide at its LC; for Loss in activity at 5 mM Mg2+ against P. aeruginosa: 5 mM MgCl2, as compared to HC-1(R). As to the method: as §2, §3
For another test, the system named is S. aureus. Described as above. The format is cell-based. The note with it: peptide at its LC, 1 mM CaCl2. As to the method:
as §2, §3

A further test relates to bacteria. Description: Antibacterial activity, comparison of peptides. It is filed as cell-based. The following applies: from LC values. As to the method:
as §1

Values after ≈ are worked out from the molar mass of the structure shown. Bridge positions count the residues as written; N and C are the ends. Square brackets hold non-standard residues; d marks the D form. Peptide text beside a SMILES is read from it.

Take `CC[C@H](C)[C@@H]1NC(=O)[C@H](CCCCN)NC(=O)[C@H]([C@@H](C)O)NC(=O)[C@H](Cc2ccccc2)NC(=O)[C@H]([C@@H](C)CC)NC(=O)[C@@H]2CCCN2C(=O)[C@@H](NC(=O)[C@H](C)N)CSSC[C@@H](C(=O)N[C@@H](CCCNC(=N)N)C(=O)O)NC(=O)[C@H](CCCCN)NC(=O)[C@H](C)NC(=O)[C@H](CCCNC(=N)N)NC(=O)CNC(=O)[C@H](CCCNC(=N)N)NC(=O)[C@H](Cc2ccc(O)cc2)NC(=O)[C@H]([C@@H](C)O)NC(=O)CNC(=O)[C@H](CCC(N)=O)NC1=O` [HC-1(R)] (H-ACPIFTKIQGTYRGRAKCR-OH; disulfide 2-18): the “MFC C. albicans” value in the test with C. albicans is on record as 2.5 µM (≈ 5.42 µg/mL).
As for `CC[C@@H](C)[C@H]1NC(=O)[C@H](CCCCN)NC(=O)[C@H]([C@@H](C)O)NC(=O)[C@H](Cc2ccccc2)NC(=O)[C@@H]([C@H](C)CC)NC(=O)[C@@H]2CCCN2C(=O)[C@@H](NC(=O)[C@H](C)N)CSSC[C@@H](C(=O)N[C@@H](CCCNC(=N)N)C(=O)O)NC(=O)[C@H](CCCCN)NC(=O)[C@H](C)NC(=O)[C@@H](CCCNC(=N)N)NC(=O)CNC(=O)[C@@H](CCCNC(=N)N)NC(=O)[C@H](Cc2ccc(O)cc2)NC(=O)[C@H]([C@@H](C)O)NC(=O)CNC(=O)[C@H](CCC(N)=O)NC1=O` [[D]HC-1(R)] (H-ACP[dI]FTK[dI]QGTY[dR]G[dR]AKCR-OH; disulfide 2-18; N-terminus assumed), in the test with E. coli (MG 1655), the “LC E. coli” value was 5 µM. In test [1], the “LC P. aeruginosa” value is reported as 5 µM. In addition, in the test on S. aureus (ATCC 8530), the “LC S. aureus” value came to 5 µM. Further, the “MFC C. albicans” value in the test with C. albicans amounted to 5 µM (≈ 10.8 µg/mL). Besides, the “Antibacterial activity in the presence of 1 mM Ca2+, Gram-negative bacteria” value in the test with Gram-negative bacteria is recorded as “is not attenuated”. Also, the “Loss in activity at 5 mM Mg2+ against P. aeruginosa” value in the test with P. aeruginosa is recorded as “more”. In the test with S. aureus, the “Loss in activity against S. aureus at 1 mM Ca2+” value is listed as “not”.
Regarding `CC[C@@H](C)[C@H]1NC(=O)[C@H](CCC(N)=O)NC(=O)[C@H](CCC(=O)O)NC(=O)[C@H](CCC(=O)O)NC(=O)[C@H](CCCCN)NC(=O)[C@@H]2CCCN2C(=O)[C@H](CC(C)C)NC(=O)[C@@H](NC(=O)[C@@H](N)CO)CSSC[C@@H](C(=O)N[C@H](CCCNC(=N)N)C(=O)N[C@H](CCCNC(=N)N)C(=O)N[C@@H](CCCCN)C(=O)N[C@@H](CCCNC(=N)N)C(=O)O)NC(=O)[C@H](CCCCN)NC(=O)[C@@H](CCCNC(=N)N)NC(=O)CNC(=O)[C@@H](CCCNC(=N)N)NC(=O)[C@H]([C@@H](C)O)NC(=O)[C@H](CO)NC(=O)[C@H](CCCCN)NC(=O)CNC1=O` [[D]HC-3(R)] (H-SCLPKEEQ[dI]GKST[dR]G[dR]KC[dR][dR]KR-OH; disulfide 2-18; N-terminus assumed), the “LC E. coli” value in the test with E. coli (MG 1655) stood at 2.5 µM. Further, the “LC P. aeruginosa” value in test [1] is on record as 2.5 µM. Moreover, in the test with S. aureus (ATCC 8530), the “LC S. aureus” value was 2.5 µM. In the test with C. albicans, the “MFC C. albicans” value came out at 2.5 µM (≈ 6.54 µg/mL). For the same compound, the “Antibacterial activity in the presence of 1 mM Ca2+, Gram-negative bacteria” value in the test with Gram-negative bacteria was “loss in activity is observed”. Moreover, the “Antibacterial activity in the presence of 5 mM Ca2+, Gram-negative bacteria” value in the test on Gram-negative bacteria (5 mM CaCl2 in buffer) is listed as “further attenuated”. The “Loss in activity at 5 mM Ca2+ against P. aeruginosa” value in the test on P. aeruginosa (5 mM CaCl2, as compared to [D]HC-1(R)) is listed as “more pronounced”. The “Loss in activity at 5 mM Mg2+ against P. aeruginosa” value in the test on P. aeruginosa is given as “more”. Also, in the test with bacteria, the “Fold more active against bacteria as compared to HC-1(R) and [D]HC-1(R)” value turned out to be 2 fold.
